Tests used:
[1] = molecular target: T1, rat VR1 (Rattus norvegicus, UniProt O35433); test: [3H]resiniferatoxin (RTX) competition binding assay, VR1-transfected CHO cells
T1 construct: expressed in transfected cells
How it was run: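 Competition with [3H]RTX (50-100 pM) ran 60 min at 37° C using whole VR1-induced CHO cells in BSA-containing DPBS, nonspecific defined by 100 nM cold RTX. After centrifugation, pellet radioactivity counted by scintillation; Hill fits gave Ki and cooperativity.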

[2] = molecular target: T1, rat VR1; test: 45Ca2+-uptake assay in CHO/VR1 cells, antagonism of capsaicin-stimulated uptake; format: cell-based; conditions: 45Ca2+ uptake stimulated by 50 nM capsaicin
[3] = competition with [3H]RTX, rat VR1 in CHO cells, read-out: Ki (nM) Binding Affinity

T1 sequence (O35433 whole entry): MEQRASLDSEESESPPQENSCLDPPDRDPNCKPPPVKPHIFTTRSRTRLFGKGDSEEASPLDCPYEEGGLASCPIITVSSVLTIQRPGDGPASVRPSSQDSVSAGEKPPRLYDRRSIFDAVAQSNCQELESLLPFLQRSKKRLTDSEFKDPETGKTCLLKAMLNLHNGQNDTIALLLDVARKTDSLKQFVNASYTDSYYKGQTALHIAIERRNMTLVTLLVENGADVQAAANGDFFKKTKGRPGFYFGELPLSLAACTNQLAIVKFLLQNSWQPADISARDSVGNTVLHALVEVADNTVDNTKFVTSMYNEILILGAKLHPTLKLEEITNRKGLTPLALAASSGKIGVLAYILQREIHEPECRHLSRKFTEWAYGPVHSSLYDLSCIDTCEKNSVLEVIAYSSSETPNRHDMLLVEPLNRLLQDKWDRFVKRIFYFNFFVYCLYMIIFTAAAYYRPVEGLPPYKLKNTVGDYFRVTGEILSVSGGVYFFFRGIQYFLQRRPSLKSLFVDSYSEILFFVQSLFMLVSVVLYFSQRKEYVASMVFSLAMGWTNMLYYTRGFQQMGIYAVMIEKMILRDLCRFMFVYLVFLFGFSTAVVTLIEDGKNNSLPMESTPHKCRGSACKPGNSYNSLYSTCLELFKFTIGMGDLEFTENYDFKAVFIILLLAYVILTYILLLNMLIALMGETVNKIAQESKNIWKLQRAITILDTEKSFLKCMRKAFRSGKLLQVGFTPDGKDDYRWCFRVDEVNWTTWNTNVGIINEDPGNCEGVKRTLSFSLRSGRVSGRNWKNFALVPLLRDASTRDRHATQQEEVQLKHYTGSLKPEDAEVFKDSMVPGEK

CC(C(=O)NCc1ccc(C(C)(C)C)cc1)c1ccc(NS(C)(=O)=O)cc1Cl (stereo not drawn) [1-67, N-(4-tert-Butylbenzyl)-2-[2-chloro-4-(methylsulfonylamino)phenyl]propionamide]
melting point: 134 to 136 °C
Ki [1, 3]: 1420 nM
Ki [2]: 4480 nM

Cc1ccc(CC(CNC(=O)C2(c3ccc(NS(C)(=O)=O)cc3)CC2)COC(=O)C(C)(C)C)cc1C (stereo not drawn) [12-1, N-[2-(3,4-Dimethylbenzyl)-3-pivaloyloxypropyl]-1-[4-(methylsulfonylamino)phenyl]cyclopropanecarboxamide]
melting point: 54 to 56 °C
Ki [1, 3]: 396 nM
Ki [2]: 197 nM

C[C@@H](C(=O)NC[C@H](COC(=O)C(C)(C)C)Cc1ccc(C(C)(C)C)cc1)c1ccc(NS(C)(=O)=O)c(F)c1 [6-12, N-[(2R)-2-(4-t-Butylbenzyl)-3-(pivaloyloxy)propyl]-(2R)-2-[3-fluoro-4-(methylsulfonylamino)phenyl]propionamide]
melting point: 43 to 45 °C
Ki [1, 3]: 53 nM
Ki [2]: 30.3 nM

CC(C(=O)NCC=C(c1ccc(F)cc1)c1ccc(F)cc1)c1ccc(NS(C)(=O)=O)c(F)c1 (stereo not drawn) [4-27, N-[3,3-Di(4-fluorophenyl)-2-propenyl]-2-[3-fluoro-4-(methylsulfonylamino)phenyl]propionamide]
melting point: 57 to 60 °C
Ki [1, 3]: 43.3 nM
Ki [2]: 29.3 nM

CC(C)C(NC(=S)NCc1ccc(C(C)(C)C)cc1)c1ccc(NS(C)(=O)=O)c(F)c1 (stereo not drawn) [20-13, N′-(4-t-Butylbenzyl)-N-{1-[4-(methylsulfonylamino)-3-fluorophenyl]-2-methylpropyl}thiourea]
melting point: 84 °C
Ki [1, 3]: 338 nM
Ki [2]: 223 nM

CC(C)c1ccc(CNC(=O)C(C)c2ccc(NS(C)(=O)=O)c(F)c2)cc1 (stereo not drawn) [4-8, N-(4-Isopropylbenzyl)-2-[3-fluoro-4-(methylsulfonylamino)phenyl]propionamide]
melting point: 137 to 139 °C
Ki [1, 3]: 127 nM
Ki [2]: 143 nM

COc1cc(C(C)(C)C(=O)NCCCc2ccc(C)c(C)c2)ccc1NS(C)(=O)=O [9-6, N-[3-(3,4-Dimethylphenyl)propyl]-2-[3-methoxy-4-(methylsulfonylamino)phenyl]-2-methylpropionamide]
melting point: 93 to 95 °C
Ki [1]: 838 nM
Ki [2]: 366 nM

CC(C(=O)NCc1ccc(Cl)c(Cl)c1)c1ccc(NS(C)(=O)=O)c(Br)c1 (stereo not drawn) [4-6, N-(3,4-Dichlorobenzyl)-2-[3-bromo-4-(methylsulfonylamino)phenyl]propionamide]
melting point: 161 to 162 °C
Ki [1]: 226 nM
Ki [2]: 89.6 nM

CC(C(=O)NCc1ccc(C(C)(C)C)cc1)c1ccc(NS(C)(=O)=O)c(I)c1 (stereo not drawn) [1-54, N-(4-tert-Butylbenzyl)-2-[3-iodo-4-(methylsulfonylamino)phenyl]propionamide]
melting point: 71 °C
Ki [1, 3]: 23.3 nM
Ki [2]: 29.9 nM

Cc1ccc(C(C)CC(=O)NC(C)c2ccc(NS(C)(=O)=O)c(F)c2)cc1C (stereo not drawn) [24-8, N-{1-[3-Fluoro-4-(methylsulfonylamino)phenyl]ethyl}-3-(3,4-dimethylphenyl)butanamide]
melting point: 152 to 154 °C
Ki [1]: 3530 nM
Ki [2]: 988 nM

C[C@H](C(=O)NC[C@H](COC(=O)C(C)(C)C)Cc1ccc(C(C)(C)C)cc1)c1ccc(NS(C)(=O)=O)c(F)c1 [6-9, N-[(2R)-2-(4-t-Butylbenzyl)-3-(pivaloyloxy)propyl]-(2S)-2-[3-fluoro-4-(methylsulfonylamino)phenyl]propionamide]
melting point: 44 to 46 °C
Ki [1]: 4.24 nM
Ki [2]: 0.58 nM

C[C@@H](NC(=S)N[C@@H](COC(=O)C(C)(C)C)Cc1ccccc1)c1ccc(NS(C)(=O)=O)cc1 [19-13, N-[(2R)-3-phenyl-1-pivaloyloxy-2-propyl]-N′-[(R)-α-methyl-4-(methylsulfonylamino)benzy]thiourea]
melting point: 59 to 61 °C
Ki [1]: 420 nM
Ki [2]: 193 nM

CC(NC(=O)CCc1ccc(C(C)(C)C)cc1)c1ccc(NS(C)(=O)=O)c(F)c1 (stereo not drawn) [24-2, N-{1-[3-Fluoro-4-(methylsulfonylamino)phenyl]ethyl}-3-(4-tert-butylphenyl)propanamide]
melting point: 152 to 154 °C
Ki [1, 3]: 376 nM
Ki [2]: 103 nM

COc1cc(C(C)C(=O)NCC(COC(=O)C(C)(C)C)Cc2ccc(C)c(C)c2)ccc1NS(C)(=O)=O (stereo not drawn) [5-5, N-[2-(3,4-Dimethylbenzyl)-3-pivaloyloxypropyl]-2-[3-methoxy-4-(methylsulfonylamino)phenyl]propionamide]
melting point: 54 to 57 °C
Ki [1, 3]: 71.2 nM
Ki [2]: 13.6 nM

COc1cc(C(C)C(=O)NCc2ccc(C(C)(C)C)cc2)ccc1NS(C)(=O)=O (stereo not drawn) [1-65, N-(4-tert-Butylbenzyl)-2-[3-methoxy-4-(methylsulfonylamino)phenyl]propionamide]
melting point: 74 to 76 °C
Ki [1, 3]: 536 nM
Ki [2]: 232 nM

CC(C(=O)NCC(COC(=O)C(C)(C)C)Cc1ccc(C(C)(C)C)cc1)c1ccc(NS(C)(=O)=O)c(F)c1 (stereo not drawn) [5-4, 2-[3-Fluoro-4-(methylsulfonylamino)phenyl]-N-[2-(4-tert-butylbenzyl)-3-pivaloyloxypropyl]propionamide]
melting point: 113 to 115 °C
Ki [1, 3]: 13.6 nM
Ki [2]: 3.24 nM

CC(C(=O)NCC(c1ccccc1)c1ccccc1)c1ccc(NS(C)(=O)=O)c(F)c1 (stereo not drawn) [4-23, N-(2,2-Diphenylethyl)-2-[3-fluoro-4-(methylsulfonylamino)phenyl]propionamide]
melting point: 129 °C
Ki [1, 3]: 1700 nM
Ki [2]: 2490 nM

CC(C(=O)NCc1ccc(-c2ccccc2)cc1)c1ccc(NS(C)(=O)=O)c(F)c1 (stereo not drawn) [4-11, N-(4-Biphenylmethyl)-2-[3-fluoro-4-(methylsulfonylamino)phenyl]propionamide]
melting point: 155 to 157 °C
Ki [1, 3]: 1750 nM
Ki [2]: 261 nM

CC(C(=O)NCC(COC(=O)C(C)(C)C)Cc1ccc(C(C)(C)C)cc1)c1ccc(NS(C)(=O)=O)c(Cl)c1 (stereo not drawn) [5-8, N-[2-(4-tert-Butylbenzyl)-3-pivaloyloxypropyl]-2-[3-chloro-4-(methylsulfonylamino)phenyl]propionamide]
melting point: 142 to 144 °C
Ki [1, 3]: 3.62 nM
Ki [2]: 12.3 nM

CC(C)(C)c1ccc(CNC(=S)NC(C)(C)c2ccc(NS(C)(=O)=O)c(F)c2)cc1 [21-8, N-(4-t-Butylbenzyl)-N′-{1-methyl-1-[3-fluoro-4-(methylsulfonylamino)phenyl]ethyl}thiourea]
melting point: 83 to 85 °C
Ki [1, 3]: 7740 nM
Ki [2]: 983 nM

Cc1ccc(CCCNC(=O)C(C)(C)c2ccc(NS(C)(=O)=O)c(F)c2)cc1C [9-5, N-[3-(3,4-Dimethylphenyl)propyl]-2-[3-fluoro-4-(methylsulfonylamino)phenyl]-2-methylpropionamide]
melting point: 145 to 146 °C
Ki [1]: 960 nM
Ki [2]: 418 nM

COc1cc(C2(NC(=S)NCc3ccc(C(C)(C)C)cc3)CC2)ccc1NS(C)(=O)=O [22-9, N-(4-t-Butylbenzyl)-N′-{1-[3-methoxy-4-(methylsulfonylamino)phenyl]cyclopropyl}thiourea]
melting point: 100 to 103 °C
Ki [1, 3]: 372 nM
Ki [2]: 243 nM
